pIC50: −log10 of the molar value.
Test system: BaF3
Type: functional
Conditions: Mus musculus, BaF3, 72 h; time 3 day

SMILES | GI50
CN1CCOc2c(Nc3ccc(NC(=O)Nc4cc(C(C)(C)C)on4)cc3)ncnc21 | > 10 µM
O=C(Nc1ccc(Nc2ncnc3c2OCCN3)cc1)Nc1ccc(Cl)c(C(F)(F)F)c1 | > 10 µM
O=C(Nc1ccc(Nc2ncnc3c2OCCN3)cc1)Nc1cccc(-c2ccccc2)c1 | > 10 µM
CC(C)(C)c1cc(NC(=O)Nc2ccc(Nc3ncnc4c3OCCN4)c(O)c2)no1 | 6.02 µM
O=C(Nc1ccc(Nc2ncnc3c2OCCN3)cc1)Nc1cccc2ccccc12 | > 10 µM
Cc1ccc(F)c(NC(=O)Nc2ccc(Nc3ncnc4c3OCCN4)cc2)c1 | > 10 µM
COc1cc2/c(=N/c3ccc(Br)cc3F)nc[nH]c2cc1OCC1CCN(C)CC1 [VANDETANIB] | > 10 µM
CC(C)(C)c1csc(NC(=O)Nc2ccc(Nc3ncnc4c3OCCN4)cc2)n1 | > 10 µM
CC(C)N1CCOc2c(Nc3ccc(NC(=O)Nc4cc(C(C)(C)C)on4)cc3)ncnc21 | 7.98 µM
O=C(Nc1ccc(Nc2ncnc3c2OCCN3)cc1)Nc1ccc(C(F)(F)F)cc1 | > 10 µM

Test system: BaF3
Assay: Growth inhibition of mouse BaF3 cells harboring RET M918T mutant incubated for 3 days by MTT assay
Type: functional
Conditions: BaF3, 72 h, time 3 day

SMILES | GI50
CN1CCOc2c(Nc3ccc(NC(=O)Nc4cc(C(C)(C)C)on4)cc3)ncnc21 | > 10 µM
O=C(Nc1ccc(Nc2ncnc3c2OCCN3)cc1)Nc1ccc(Cl)c(C(F)(F)F)c1 | 9.94 µM
O=C(Nc1ccc(Nc2ncnc3c2OCCN3)cc1)Nc1cccc(-c2ccccc2)c1 | > 10 µM
CC(C)(C)c1cc(NC(=O)Nc2ccc(Nc3ncnc4c3OCCN4)c(O)c2)no1 | 8.81 µM
O=C(Nc1ccc(Nc2ncnc3c2OCCN3)cc1)Nc1cccc2ccccc12 | > 10 µM
Cc1ccc(F)c(NC(=O)Nc2ccc(Nc3ncnc4c3OCCN4)cc2)c1 | > 10 µM
COc1cc2/c(=N/c3ccc(Br)cc3F)nc[nH]c2cc1OCC1CCN(C)CC1 [VANDETANIB] | 0.97 µM
CC(C)(C)c1csc(NC(=O)Nc2ccc(Nc3ncnc4c3OCCN4)cc2)n1 | > 10 µM
CC(C)N1CCOc2c(Nc3ccc(NC(=O)Nc4cc(C(C)(C)C)on4)cc3)ncnc21 | 8.61 µM
O=C(Nc1ccc(Nc2ncnc3c2OCCN3)cc1)Nc1ccc(C(F)(F)F)cc1 | > 10 µM

Test system: BaF3
Assay: Growth inhibition of mouse BaF3 cells incubated for 3 days by MTT assay
Type: functional
Conditions: BaF3, 72 h, time 3 day

SMILES | GI50
CN1CCOc2c(Nc3ccc(NC(=O)Nc4cc(C(C)(C)C)on4)cc3)ncnc21 | > 10 µM
O=C(Nc1ccc(Nc2ncnc3c2OCCN3)cc1)Nc1ccc(Cl)c(C(F)(F)F)c1 | > 10 µM
O=C(Nc1ccc(Nc2ncnc3c2OCCN3)cc1)Nc1cccc(-c2ccccc2)c1 | > 10 µM
CC(C)(C)c1cc(NC(=O)Nc2ccc(Nc3ncnc4c3OCCN4)c(O)c2)no1 | > 10 µM
O=C(Nc1ccc(Nc2ncnc3c2OCCN3)cc1)Nc1cccc2ccccc12 | > 10 µM
Cc1ccc(F)c(NC(=O)Nc2ccc(Nc3ncnc4c3OCCN4)cc2)c1 | > 10 µM
COc1cc2/c(=N/c3ccc(Br)cc3F)nc[nH]c2cc1OCC1CCN(C)CC1 [VANDETANIB] | 8.41 µM
CC(C)(C)c1csc(NC(=O)Nc2ccc(Nc3ncnc4c3OCCN4)cc2)n1 | > 10 µM
CC(C)N1CCOc2c(Nc3ccc(NC(=O)Nc4cc(C(C)(C)C)on4)cc3)ncnc21 | > 10 µM
O=C(Nc1ccc(Nc2ncnc3c2OCCN3)cc1)Nc1ccc(C(F)(F)F)cc1 | 10 µM

Test system: BaF3
Assay: Growth inhibition of mouse BaF3 cells over expressing wild type RET incubated for 3 days by MTT assay
Type: functional
Conditions: BaF3, 72 h, time 3 day

SMILES | GI50
CN1CCOc2c(Nc3ccc(NC(=O)Nc4cc(C(C)(C)C)on4)cc3)ncnc21 | 8.06 µM
O=C(Nc1ccc(Nc2ncnc3c2OCCN3)cc1)Nc1ccc(Cl)c(C(F)(F)F)c1 | 3.07 µM
O=C(Nc1ccc(Nc2ncnc3c2OCCN3)cc1)Nc1cccc(-c2ccccc2)c1 | > 10 µM
CC(C)(C)c1cc(NC(=O)Nc2ccc(Nc3ncnc4c3OCCN4)c(O)c2)no1 | 3.37 µM
O=C(Nc1ccc(Nc2ncnc3c2OCCN3)cc1)Nc1cccc2ccccc12 | > 10 µM
Cc1ccc(F)c(NC(=O)Nc2ccc(Nc3ncnc4c3OCCN4)cc2)c1 | > 10 µM
COc1cc2/c(=N/c3ccc(Br)cc3F)nc[nH]c2cc1OCC1CCN(C)CC1 [VANDETANIB] | 0.46 µM
CC(C)(C)c1csc(NC(=O)Nc2ccc(Nc3ncnc4c3OCCN4)cc2)n1 | > 10 µM
CC(C)N1CCOc2c(Nc3ccc(NC(=O)Nc4cc(C(C)(C)C)on4)cc3)ncnc21 | 5.16 µM
O=C(Nc1ccc(Nc2ncnc3c2OCCN3)cc1)Nc1ccc(C(F)(F)F)cc1 | 4.4 µM

Test system: not listed separately
Assay: Growth inhibition of human TT cells incubated for 10 days by MTT assay
Type: functional
Conditions: 240 h, time 10 day

SMILES | GI50
CN1CCOc2c(Nc3ccc(NC(=O)Nc4cc(C(C)(C)C)on4)cc3)ncnc21 | 4.86 µM
O=C(Nc1ccc(Nc2ncnc3c2OCCN3)cc1)Nc1ccc(Cl)c(C(F)(F)F)c1 | 1.99 µM
O=C(Nc1ccc(Nc2ncnc3c2OCCN3)cc1)Nc1cccc(-c2ccccc2)c1 | > 10 µM
CC(C)(C)c1cc(NC(=O)Nc2ccc(Nc3ncnc4c3OCCN4)c(O)c2)no1 | 0.8 µM
O=C(Nc1ccc(Nc2ncnc3c2OCCN3)cc1)Nc1cccc2ccccc12 | > 10 µM
Cc1ccc(F)c(NC(=O)Nc2ccc(Nc3ncnc4c3OCCN4)cc2)c1 | 5.82 µM
COc1cc2/c(=N/c3ccc(Br)cc3F)nc[nH]c2cc1OCC1CCN(C)CC1 [VANDETANIB] | 0.14 µM
CC(C)(C)c1csc(NC(=O)Nc2ccc(Nc3ncnc4c3OCCN4)cc2)n1 | > 10 µM
CC(C)N1CCOc2c(Nc3ccc(NC(=O)Nc4cc(C(C)(C)C)on4)cc3)ncnc21 | 5.1 µM
O=C(Nc1ccc(Nc2ncnc3c2OCCN3)cc1)Nc1ccc(C(F)(F)F)cc1 | 6.65 µM

Test system: not listed separately
Assay: Growth inhibition of […] NIH3T3 cells incubated for 3 days by MTT assay
Type: functional
Conditions: NIH3T3, 72 h; time 3 day

SMILES | GI50
CN1CCOc2c(Nc3ccc(NC(=O)Nc4cc(C(C)(C)C)on4)cc3)ncnc21 | > 10 µM
O=C(Nc1ccc(Nc2ncnc3c2OCCN3)cc1)Nc1ccc(Cl)c(C(F)(F)F)c1 | > 10 µM
O=C(Nc1ccc(Nc2ncnc3c2OCCN3)cc1)Nc1cccc(-c2ccccc2)c1 | > 10 µM
CC(C)(C)c1cc(NC(=O)Nc2ccc(Nc3ncnc4c3OCCN4)c(O)c2)no1 | > 10 µM
O=C(Nc1ccc(Nc2ncnc3c2OCCN3)cc1)Nc1cccc2ccccc12 | > 10 µM
Cc1ccc(F)c(NC(=O)Nc2ccc(Nc3ncnc4c3OCCN4)cc2)c1 | > 10 µM
COc1cc2/c(=N/c3ccc(Br)cc3F)nc[nH]c2cc1OCC1CCN(C)CC1 [VANDETANIB] | 7.15 µM
CC(C)(C)c1csc(NC(=O)Nc2ccc(Nc3ncnc4c3OCCN4)cc2)n1 | > 10 µM
CC(C)N1CCOc2c(Nc3ccc(NC(=O)Nc4cc(C(C)(C)C)on4)cc3)ncnc21 | > 10 µM
O=C(Nc1ccc(Nc2ncnc3c2OCCN3)cc1)Nc1ccc(C(F)(F)F)cc1 | > 10 µM

Test system: not listed separately
Assay: Growth inhibition of […] NIH3T3 cells harboring RET C634Y mutant incubated for 3 days by MTT assay
Type: functional
Conditions: NIH3T3, 72 h; time 3 day

SMILES | GI50
CN1CCOc2c(Nc3ccc(NC(=O)Nc4cc(C(C)(C)C)on4)cc3)ncnc21 | > 10 µM
O=C(Nc1ccc(Nc2ncnc3c2OCCN3)cc1)Nc1ccc(Cl)c(C(F)(F)F)c1 | 2.29 µM
O=C(Nc1ccc(Nc2ncnc3c2OCCN3)cc1)Nc1cccc(-c2ccccc2)c1 | 10 µM
CC(C)(C)c1cc(NC(=O)Nc2ccc(Nc3ncnc4c3OCCN4)c(O)c2)no1 | 1.55 µM
O=C(Nc1ccc(Nc2ncnc3c2OCCN3)cc1)Nc1cccc2ccccc12 | > 10 µM
Cc1ccc(F)c(NC(=O)Nc2ccc(Nc3ncnc4c3OCCN4)cc2)c1 | 10 µM
COc1cc2/c(=N/c3ccc(Br)cc3F)nc[nH]c2cc1OCC1CCN(C)CC1 [VANDETANIB] | 0.34 µM
CC(C)(C)c1csc(NC(=O)Nc2ccc(Nc3ncnc4c3OCCN4)cc2)n1 | > 10 µM
CC(C)N1CCOc2c(Nc3ccc(NC(=O)Nc4cc(C(C)(C)C)on4)cc3)ncnc21 | 3.12 µM
O=C(Nc1ccc(Nc2ncnc3c2OCCN3)cc1)Nc1ccc(C(F)(F)F)cc1 | 3.14 µM

Target: Proto-oncogene tyrosine-protein kinase receptor Ret (Homo sapiens, UniProt P07949)
Sequence (P07949 whole entry): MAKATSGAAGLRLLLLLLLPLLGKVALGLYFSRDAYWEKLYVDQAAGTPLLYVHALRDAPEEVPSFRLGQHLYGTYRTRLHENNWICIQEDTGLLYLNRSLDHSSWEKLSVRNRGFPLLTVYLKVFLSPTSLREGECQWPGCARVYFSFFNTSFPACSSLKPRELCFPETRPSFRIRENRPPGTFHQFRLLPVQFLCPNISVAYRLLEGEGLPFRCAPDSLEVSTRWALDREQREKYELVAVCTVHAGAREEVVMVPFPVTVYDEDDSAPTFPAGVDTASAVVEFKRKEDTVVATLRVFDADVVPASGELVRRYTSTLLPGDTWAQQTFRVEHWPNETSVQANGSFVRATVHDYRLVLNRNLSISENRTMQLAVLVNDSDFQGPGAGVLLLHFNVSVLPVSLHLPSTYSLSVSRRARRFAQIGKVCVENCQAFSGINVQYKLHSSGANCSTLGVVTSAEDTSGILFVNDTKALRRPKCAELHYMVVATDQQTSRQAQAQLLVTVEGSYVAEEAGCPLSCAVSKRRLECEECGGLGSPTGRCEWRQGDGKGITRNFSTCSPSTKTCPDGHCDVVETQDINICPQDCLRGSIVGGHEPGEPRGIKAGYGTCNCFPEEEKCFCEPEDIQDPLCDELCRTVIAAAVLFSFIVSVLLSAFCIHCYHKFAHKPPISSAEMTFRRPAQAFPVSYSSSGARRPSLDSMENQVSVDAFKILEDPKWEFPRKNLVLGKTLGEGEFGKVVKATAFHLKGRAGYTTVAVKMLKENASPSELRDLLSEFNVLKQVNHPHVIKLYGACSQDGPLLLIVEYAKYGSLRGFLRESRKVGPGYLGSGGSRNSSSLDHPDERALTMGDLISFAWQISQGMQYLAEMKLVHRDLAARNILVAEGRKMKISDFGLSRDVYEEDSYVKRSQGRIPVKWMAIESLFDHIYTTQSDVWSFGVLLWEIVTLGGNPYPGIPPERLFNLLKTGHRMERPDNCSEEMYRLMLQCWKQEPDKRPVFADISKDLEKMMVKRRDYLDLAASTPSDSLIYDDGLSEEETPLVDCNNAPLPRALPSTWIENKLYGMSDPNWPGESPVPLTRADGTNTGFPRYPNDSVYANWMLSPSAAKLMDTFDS
Conditions: not given

SMILES | pIC50
CN1CCOc2c(Nc3ccc(NC(=O)Nc4cc(C(C)(C)C)on4)cc3)ncnc21 | 6.49
O=C(Nc1ccc(Nc2ncnc3c2OCCN3)cc1)Nc1ccc(Cl)c(C(F)(F)F)c1 | 6.75
O=C(Nc1ccc(Nc2ncnc3c2OCCN3)cc1)Nc1cccc(-c2ccccc2)c1 | < 5.00
CC(C)(C)c1cc(NC(=O)Nc2ccc(Nc3ncnc4c3OCCN4)c(O)c2)no1 | 7.60
O=C(Nc1ccc(Nc2ncnc3c2OCCN3)cc1)Nc1cccc2ccccc12 | < 5.00
Cc1ccc(F)c(NC(=O)Nc2ccc(Nc3ncnc4c3OCCN4)cc2)c1 | 5.83
CC(C)(C)c1csc(NC(=O)Nc2ccc(Nc3ncnc4c3OCCN4)cc2)n1 | 5.50
CC(C)N1CCOc2c(Nc3ccc(NC(=O)Nc4cc(C(C)(C)C)on4)cc3)ncnc21 | 5.06
O=C(Nc1ccc(Nc2ncnc3c2OCCN3)cc1)Nc1ccc(C(F)(F)F)cc1 | 6.51

Test system: BaF3
Assay: Growth inhibition of mouse BaF3 cells harboring RET V804M mutant incubated for 3 days by MTT assay
Type: functional
Conditions: BaF3, 72 h, time 3 day

SMILES | GI50
CN1CCOc2c(Nc3ccc(NC(=O)Nc4cc(C(C)(C)C)on4)cc3)ncnc21 | > 10 µM
O=C(Nc1ccc(Nc2ncnc3c2OCCN3)cc1)Nc1ccc(Cl)c(C(F)(F)F)c1 | > 10 µM
O=C(Nc1ccc(Nc2ncnc3c2OCCN3)cc1)Nc1cccc(-c2ccccc2)c1 | > 10 µM
CC(C)(C)c1cc(NC(=O)Nc2ccc(Nc3ncnc4c3OCCN4)c(O)c2)no1 | 1.87 µM
O=C(Nc1ccc(Nc2ncnc3c2OCCN3)cc1)Nc1cccc2ccccc12 | > 10 µM
Cc1ccc(F)c(NC(=O)Nc2ccc(Nc3ncnc4c3OCCN4)cc2)c1 | > 10 µM
COc1cc2/c(=N/c3ccc(Br)cc3F)nc[nH]c2cc1OCC1CCN(C)CC1 [VANDETANIB] | > 10 µM
CC(C)(C)c1csc(NC(=O)Nc2ccc(Nc3ncnc4c3OCCN4)cc2)n1 | > 10 µM
CC(C)N1CCOc2c(Nc3ccc(NC(=O)Nc4cc(C(C)(C)C)on4)cc3)ncnc21 | 8.98 µM
O=C(Nc1ccc(Nc2ncnc3c2OCCN3)cc1)Nc1ccc(C(F)(F)F)cc1 | 8.49 µM

Target: Proto-oncogene tyrosine-protein kinase receptor Ret (Homo sapiens, UniProt P07949, V804M)
Sequence (P07949 29-1114 V804M limits assumed): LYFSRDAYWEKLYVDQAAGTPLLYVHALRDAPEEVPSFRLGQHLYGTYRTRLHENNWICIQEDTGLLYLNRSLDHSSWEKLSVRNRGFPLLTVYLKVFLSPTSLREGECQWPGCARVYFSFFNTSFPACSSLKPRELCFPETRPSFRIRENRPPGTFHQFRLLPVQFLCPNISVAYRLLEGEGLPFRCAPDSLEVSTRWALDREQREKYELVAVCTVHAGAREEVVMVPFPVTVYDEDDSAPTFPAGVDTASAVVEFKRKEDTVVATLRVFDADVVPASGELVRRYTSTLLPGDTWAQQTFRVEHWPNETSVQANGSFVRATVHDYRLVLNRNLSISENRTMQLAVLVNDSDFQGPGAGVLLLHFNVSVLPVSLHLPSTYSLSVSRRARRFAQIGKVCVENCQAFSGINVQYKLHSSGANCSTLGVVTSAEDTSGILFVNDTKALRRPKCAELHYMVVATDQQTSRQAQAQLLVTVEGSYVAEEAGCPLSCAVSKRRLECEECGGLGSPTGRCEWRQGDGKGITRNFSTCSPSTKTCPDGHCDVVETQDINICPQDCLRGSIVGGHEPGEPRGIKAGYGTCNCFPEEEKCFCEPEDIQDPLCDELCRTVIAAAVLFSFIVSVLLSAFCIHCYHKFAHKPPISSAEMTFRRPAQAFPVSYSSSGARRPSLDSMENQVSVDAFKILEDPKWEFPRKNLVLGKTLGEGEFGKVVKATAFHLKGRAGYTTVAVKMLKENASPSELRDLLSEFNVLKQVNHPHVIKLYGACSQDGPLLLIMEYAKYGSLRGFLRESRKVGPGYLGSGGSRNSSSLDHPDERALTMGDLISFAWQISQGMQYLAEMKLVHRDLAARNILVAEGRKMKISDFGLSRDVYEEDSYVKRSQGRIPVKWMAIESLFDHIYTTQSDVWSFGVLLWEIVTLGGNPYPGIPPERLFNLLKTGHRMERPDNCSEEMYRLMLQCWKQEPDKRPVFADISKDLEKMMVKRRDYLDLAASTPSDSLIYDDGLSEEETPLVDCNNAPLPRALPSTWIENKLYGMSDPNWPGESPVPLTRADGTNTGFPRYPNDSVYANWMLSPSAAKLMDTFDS
Conditions: not given

SMILES | pIC50
CN1CCOc2c(Nc3ccc(NC(=O)Nc4cc(C(C)(C)C)on4)cc3)ncnc21 | 6.46
O=C(Nc1ccc(Nc2ncnc3c2OCCN3)cc1)Nc1ccc(Cl)c(C(F)(F)F)c1 | 6.73
O=C(Nc1ccc(Nc2ncnc3c2OCCN3)cc1)Nc1cccc(-c2ccccc2)c1 | 5.12
CC(C)(C)c1cc(NC(=O)Nc2ccc(Nc3ncnc4c3OCCN4)c(O)c2)no1 | 7.20
O=C(Nc1ccc(Nc2ncnc3c2OCCN3)cc1)Nc1cccc2ccccc12 | < 5.00
Cc1ccc(F)c(NC(=O)Nc2ccc(Nc3ncnc4c3OCCN4)cc2)c1 | 5.29
CC(C)(C)c1csc(NC(=O)Nc2ccc(Nc3ncnc4c3OCCN4)cc2)n1 | 5.29
CC(C)N1CCOc2c(Nc3ccc(NC(=O)Nc4cc(C(C)(C)C)on4)cc3)ncnc21 | 5.27
O=C(Nc1ccc(Nc2ncnc3c2OCCN3)cc1)Nc1ccc(C(F)(F)F)cc1 | 6.56
